Values of other authors in patent publication US20190210972A1, “METHODS OF RESOLVING RACEMIC MIXTURE TO OBTAIN (-)-HUPERZINE A” (AMPHASTAR NANJING PHARMACEUTICALS INC., priority 2014, published 2019).

Tested on: patients with Alzheimer's disease
Details: double-blind, placebo-controlled

## C/C=C1\C2C=C(C)C[C@]1(N)c1ccc(=O)[nH]c1C2 (single isomer, unassigned; (-)) [(−)-Huperzine A]
  cognitive function and quality of life of trial participants: Significant improvements
